Results reported in US20060276465A1, “1,2-di(cyclic) substituted benzene compounds” (Eisai R&D Management Co., Ltd., priority 2003, published 2006).
Structures can show the parent of a compound that is named as a salt.

Tests used:
[1] = tested on: human peripheral blood neutrophils; assay: Human peripheral blood neutrophil adhesion system (adhesion to HUVEC immobilized plate, PMA-stimulated); type: cell-based; conditions: concentration inhibiting by 50% the PMA-stimulated increase in neutrophils adhered to HUVEC
From the text: As examples of the “C2-7 alkylcarbonyl” of Group W1 there may be mentioned the same ones listed above, among which C2-5 groups are preferred, and acetyl is particularly preferred.
As examples of the “C1-6 alkyl” for R^6X and R^7X there may be mentioned the same ones listed above.
As examples of the “halogen” of Group C1 there may be mentioned the same ones listed above, among which bromine, fluorine or chlorine is preferred.
As examples of the “C1-6 alkyl” of Group C1 there may be mentioned the same ones listed above, among which C1-4 groups are preferred, and methyl is particularly preferred.
As examples of the “C1-6 alkoxy” of Group C1 there may be mentioned the same ones listed above, among which C1-4 groups are preferred, and methoxy or ethoxy is particularly preferred.
As examples of the “halogen” of Group D1 and Group D2 (mentioned below) there may be mentioned the same ones listed above, among which fluorine or chlorine is preferred.
As examples of the “C1-6 alkoxy” of Group D1 and Group D2 (mentioned below) there may be mentioned the same ones listed above, among which C1-4 groups are preferred, and methoxy or ethoxy is particularly preferred.
The “C1-6 alkylthio” of Group D1 is a thio group having the aforementioned “C1-6 alkyl” bonded thereto, and as examples there may be mentioned straight-chain or branched-chain groups such as methylthio, ethylthio, propylthio, isopropylthio, […], isobutylthio, s-butylthio, t-butylthio, pentylthio, isopentylthio, 2-methylbutylthio, neopentylthio, 1-ethylpropylthio, hexylthio, isohexylthio, 4-methylpentylthio, 3-methylpentylthio, 2-methylpentylthio, 1-methylpentylthio, 3,3-dimethylbutylthio, 2,2-dimethylbutylthio, 1,1-dimethylbutylthio, 1,2-dimethylbutylthio, 1,3-dimethylbutylthio, 2,3-dimethylbutylthio, 1-ethylbutylthio or 2-ethylbutylthio, among which C1-4 groups are preferred, and methylthio or ethylthio is particularly preferred.
As examples of the “C1-6 alkylsulfonyl” of Group D1 there may be mentioned the same ones listed above, among which C1-4 groups are preferred, and methylsulfonyl or ethylsulfonyl is particularly preferred.
The “C1-6 alkylsulfinyl” of Group D1 is a sulfinyl group having the aforementioned “C1-6 alkyl” bonded thereto, as examples there may be mentioned straight-chain or branched-chain groups such as methylsulfinyl, ethylsulfinyl, propylsulfinyl, isopropylsulfinyl, […], isobutylsulfinyl, s-butylsulfinyl, t-butylsulfinyl, pentylsulfinyl, isopentylsulfinyl, 2-methylbutylsulfinyl, neopentylsulfinyl, 1-ethylpropylsulfinyl, hexylsulfinyl, isohexylsulfinyl, 4-methylpentylsulfinyl, 3-methylpentylsulfinyl, 2-methylpentylsulfinyl, 1-methylpentylsulfinyl, 3,3-dimethylbutylsulfinyl, 2,2-dimethylbutylsulfinyl, 1,1-dimethylbutylsulfinyl, 1,2-dimethylbutylsulfinyl, 1,3-dimethylbutylsulfinyl, 2,3-dimethylbutylsulfinyl, 1-ethylbutylsulfinyl or 2-ethylbutylsulfinyl, among which C1-4 groups are preferred, and methylsulfinyl or ethylsulfinyl is particularly preferred.

Jurkat cells [2] = assay: Jurkat cell adhesion system (adhesion to immobilized human fibronectin, PMA-stimulated); type: cell-based; conditions: concentration inhibiting by 50% the PMA-stimulated increase in adhered Jurkat cells on human fibronectin
From the text: The “C1-6 haloalkyl” of Group A1 and Group A2 (mentioned below) is aforementioned “C1-6 alkyl” having 1-6 aforementioned “halogen” bonded thereto, as examples there may be mentioned straight-chain or branched-chain alkyl groups such as methyl, ethyl, n-propyl, isopropyl, n-butyl, isobutyl, s-butyl, t-butyl, pentyl, isopentyl, 2-methylbutyl, neopentyl, 1-ethylpropyl, hexyl, isohexyl, 4-methylpentyl, 3-methylpentyl, 2-methylpentyl, 1-methylpentyl, 3,3-dimethylbutyl, 2,2-dimethylbutyl, 1,1-dimethylbutyl, 1,2-dimethylbutyl, 1,3-dimethylbutyl, 2,3-dimethylbutyl, 1-ethylbutyl or 2-ethylbutyl, having fluorine or chlorine bonded thereto, among which C1-4 alkyl having 1 to 3 fluorine or chlorine bonded thereto is preferred, and trifluoromethyl is particularly preferred.
As examples of the “C2-7 alkylene”, where C2-7 alkylene is permissible only in the case that a spiro union is formed together with the substituted 5- to 10-membered cycloalkyl or the substituted 5- to 10-membered cycloalkenyl, of Group A1 and Group A2 (mentioned below), there may be mentioned straight-chain or branched-chain groups such as 1,2-ethylene, trimethylene, propylene, ethylethylene, tetramethylene, pentamethylene, hexamethylene or heptamethylene, among which 1,2-ethylene, trimethylene, tetramethylene or pentamethylene is preferred, and 1,2-ethylene, tetramethylene or pentamethylene is particularly preferred.
As examples of the “halogen” of Group W1 there may be mentioned the same ones listed above, among which fluorine or chlorine is preferred.
As examples of the “C1-6 alkyl” of Group W1 there may be mentioned the same ones listed above, among which C1-4 groups are preferred, and methyl or ethyl is particularly preferred.
The “C2-7 alkoxyalkyl” of Group W1 is aforementioned “C1-6 alkyl” having the aforementioned “C1-6 alkoxy” bonded thereto, of 2 to 7 carbon (total number of carbon), and as examples there may be mentioned methoxymethyl, methoxyethyl, ethoxyethyl, methoxypropyl or propoxyethyl, among which methoxymethyl is preferred.
As examples of the “C1-6 alkoxy” of the “C1-6 alkoxy optionally substituted with a substituent selected from Group T1” of Group W1 there may be mentioned the same ones listed above, among which C1-4 groups are preferred, and methoxy, ethoxy, isopropoxy or propoxy is particularly preferred.

Balb/c mice = assay: DSS-induced colitis model; type: in vivo; conditions: male Balb/c mice; 1-3% DSS for 5-7 days; 30 mg/kg orally once a day for 5-7 successive days
From the text: Evaluation of Compounds in DSS-Induced Colitis Model
A 1-3% solution of dextran sulfate sodium (hereinafter abbreviated as DSS; ICN) in purified water (Otsuka Pharmaceutical) was fed freely to 6- to 7-week-old male Balb/c mice (Charles River Japan) for 5-7 days to induce colitis. Disease Activity Index (hereinafter abbreviated as DAI) scored based on fecal hardness, blood content in feces and body weight change, the number of neutrophils infiltrating the colon and the length of the colon were used as indexes to evaluate compounds. Each compound was suspended or dissolved in an aqueous solution containing 0.5% methyl cellulose (Wako), and orally administered at 30 mg/kg once a day, for 5-7 successive days.

Jurkat cells [3] = assay: Jurkat cell adhesion system (adhesion to immobilized human fibronectin, PMA-stimulated); type: cell-based; conditions: concentration inhibiting by 50% the PMA-stimulated increase in the number of adhered Jurkat cells on human fibronectin; 45-60 minutes, 37° C.
Description: Evaluation of Compounds in Jurkat Cell Adhesion System
<Immobilization of Human Fibronectin in 96-Well Plate>
Human fibronectin (Becton Dickinson Biosciences) was diluted with phosphate-buffered saline (hereinafter abbreviated as PBS; Sigma) to 0.1-0.01 μg/ml, and the diluted solution was added to a 96-well plate (Becton Dickinson) at 50 μl/well, and allowed to stand overnight at 4° C. On the following day, the supernatant was removed from the plate, and then PBS containing 1% bovine serum albumin (hereinafter abbreviated as BSA; Sigma) was added thereto at 100 μl/well and incubation was performed at 37° C. for 2 hours in a CO2 incubator (Hirasawa).
The supernatant was removed from each plate and Jurkat cells suspended in RPMI-1640 (Sigma) containing 1 mg/ml BSA were added at 80 μl/well for 2.5×10^5 cells/well. The compound diluted to different concentrations with RPMI-1640 containing 1 mg/ml BSA was immediately added at 10 μl/well, and then 100 nM phorbol myristate acetate (hereinafter abbreviated as PMA; Sigma) in RPMI-1640 containing 1 mg/ml BSA was added at 10 μl/well and the plate was incubated in a CO2 incubator at 37° C. for 45-60 minutes. The supernatant was removed from the plate and each well was washed several times with 100 μl/well of RPMI-1640, after which 50 mM citrate buffer (pH 5.0) containing 3.75 mM p-nitrophenol-N-acetyl-β-D-glucosaminide (Sigma) and 0.25% Triton X-100 (Sigma) were added at 60 μl/well, and the mixture was placed in a CO2 incubator and incubated at 37° C. for 45 minutes. After incubation, 50 mM glycine buffer (pH 10.4) containing 5 mM EDTA was added at 90 μl/well, and the absorbance at 405 nm was measured with an EL340 Automated Microplate Reader (BIO-TEK) to determine the adhered cell count. The concentration of each compound which inhibited the increase in the number of adhered cells by the PMA-stimulation by 50% was recorded as the IC50 (μM).

[4] = tested on: human peripheral blood neutrophils; assay: Human peripheral blood neutrophil adhesion system (adhesion to immobilized HUVEC, PMA-stimulated); type: cell-based; conditions: 0.75 h, concentration inhibiting by 50% the PMA-stimulated increase in the number of adhered BCECF-AM labeled neutrophils on HUVEC immobilized plate, 45 minutes, 37° C.
Description: Evaluation of Compounds in Human Peripheral Blood Neutrophil Adhesion System
<Preparation of Human Peripheral Blood Neutrophils>
To a plastic centrifugation tube containing 100 units of heparin sodium (Shimizu Pharmaceutical) was added 25 ml of fresh blood sampled from a healthy human. After adding and mixing therewith 8 ml of physiological saline (Otsuka Pharmaceutical) containing 6% Dextran (Nacalai), the mixture was allowed to stand at room temperature for 45 minutes for sedimentation of the erythrocytes. The resultant supernatant was transferred to another plastic centrifugation tube and combined with an equivalent volume of phosphate-buffered saline (hereinafter abbreviated as PBS; Sigma), and then centrifuged at 1600 rpm for 7 minutes at room temperature. The obtained hematocyte fraction was suspended in 4 ml of PBS, and the suspension was superposed on 4 ml of Ficoll-Paque™ PLUS (Amersham Biosciences). The resultant bilayer liquid was centrifuged at 2000 rpm for 30 minutes at room temperature, after which the supernatant was removed and the precipitate was suspended in 10 ml of PBS and centrifuged at 1200 rpm for 7 minutes, and the supernatant was removed. The resulting precipitate was suspended in 0.5 ml of PBS again, and then 10 ml of distilled water (Otsuka Pharmaceutical) was added, 0.5 ml of an aqueous solution containing 3 M NaCl was immediately added to restore isotonicity, the mixture was centrifuged at 1200 rpm for 7 minutes, and the obtained precipitate was suspended in PBS containing 1 mg/ml bovine serum albumin (hereinafter abbreviated as BSA; Sigma) again and stored in ice until being used for the experiment.
<Fluorescent Labeling of Human Peripheral Blood Neutrophils>
The obtained neutrophils were suspended in PBS containing 1 mg/ml BSA at 2×10^7 cells/ml. BCECF-AM (Dojin) was added to a final concentration of 5 μM, and the mixture was incubated at 37° C. for 45 minutes. It was then rinsed twice with PBS containing 1 mg/ml BSA by centrifugation, suspended again in PBS containing 1 mg/ml BSA at 5×10^7 cells/ml, and stored in ice until use.
<Preparation of HUVEC Immobilized Plate>
Human umbilical vein endothelial cells (hereinafter abbreviated as HUVEC) were suspended in MCDB131 medium (Chlorella Industries) containing 10% fetal calf serum and 30 μg/ml endothelial cell growth supplement (Becton Dickinson Bioscience). The suspension was added at 7.5×10^3 cells/well to a 96-well plate (Iwaki) immobilized with type I collagen, and cultured for 3 days in a CO2 incubator (Hirasawa). Upon confirming confluency of the cells, the supernatant was discarded, the plate was rinsed twice with PBS, and then PBS containing 0.1% glutaraldehyde (Kanto Kagaku) was added at 100 μl/well and the HUVECs were immobilized for 5 minutes. The supernatant was discarded and the plate was washed twice with PBS, and then PBS was added at 100 μl/well and the mixture was stored at 4° C. until use.
To 6.5 ml of RPMI-1640 medium (Sigma) containing 1 mg/ml of BSA were added 0.5 ml of a suspension of BCECF-AM labeled neutrophils at 5×10^7/ml stored in ice, which was mixed, and the mixture was added at 80 μl/well to a HUVEC immobilized plate. To this plate were immediately added 10 μl/well of a solution of the compound diluted at different concentrations with RPMI-1640 containing 1 mg/ml BSA, and 10 μl/well of 100 nM phorbol myristate acetate (hereinafter abbreviated as PMA; Sigma) in RPMI-1640 containing 1 mg/ml BSA, and the mixture was incubated in a CO2 incubator at 37° C. for 45 minutes. The supernatant was removed from the plate, which was then washed several times with RPMI-1640 at 100 μl/well, and then PBS containing 0.1% NP-40 (Calbiochem) was added thereto at 100 μl/well and the fluorescent intensity was measured with and ARVO™SX 1420 multi label counter (Wallac) to determine the number of adhered cells. […]

Row | SMILES | IC50 [1] | IC50 (Jurkat cells [2]) | IC50 (Jurkat cells [3]) | IC50 [4] | improvement in comparison with the DSS control group (DAI, number of neutrophils infiltrating the colon, length of the colon) (Balb/c mice)
1 | CCCCN1CCN(c2cc3c(cc2C2CC(C)(C)CC(C)(C)C2)OCO3)CC1 [Example 14, 1-Butyl-4-[6-(3,3,5,5-tetramethylcyclohexyl)benzo[1,3]dioxol-5-yl]piperazine hydrochloride] | 22.4 µM | 7.1 µM | – | – | –
2 | CCCN1CCN(c2cc3c(cc2C2=CCC(C(C)(C)C)CC2)N(C)CCO3)CC1 (racemic) [Example 8, 6-(4-t-Butylcyclohex-1-enyl)-4-methyl-7-(4-propylpiperazin-1-yl)-3,4-dihydro-2H-benzo[1,4]oxazine hydrochloride] | 16.7 µM | 3.4 µM | – | – | –
3 | CCCCN1CCN(c2ccc(N3CCOCC3)cc2C2=CCC(C(C)(C)C)CC2)CC1.Cl (racemic) [Example 18, 4-[3-(4-t-Butylcyclohex-1-enyl)-4-(4-butylpiperazin-1-yl)phenyl]morpholine hydrochloride] | – | – | 2.6 µM | 12.1 µM | particularly good improvement

The remaining compounds from weak to strong by IC50 [1], led by results:

Row | IC50 [1] | IC50 (Jurkat cells [2]) | IC50 (Jurkat cells [3]) | IC50 [4] | SMILES | improvement in comparison with the DSS control group (DAI, number of neutrophils infiltrating the colon, length of the colon) (Balb/c mice)
4 | 12.5 µM | 14.7 µM | – | – | CCCN1CCN(c2ccc(OCCOC)cc2C2CC(C)(C)CC(C)(C)C2)CC1 [Example 12, 1-[4-(2-Methoxyethoxy)-2-(3,3,5,5-tetramethylcyclohexyl)phenyl]-4-propylpiperazine hydrochloride] | –
5 | 11.8 µM | 4.7 µM | – | – | CCCCN1CCN(c2cc3c(cc2C2CC(C)(C)CC(C)(C)C2)OCCO3)CC1 [Example 15, 1-Butyl-4-[7-(3,3,55-tetramethylcyclohexyl)-2,3-dihydrobenzo[1,4]dioxin-6-yl]piperazine hydrochloride] | –
6 | 6 µM | 4 µM | – | – | CCCCN1CCN(c2ccc(N3CCC4(CC3)OCCO4)cc2C2CCC(C(C)(C)C)CC2)CC1.Cl (stereo not shown) [Example 134, 8-{3-(4-t-Butylcyclohexyl)-4-(4-butylpiperazin-1-ylphenyl}-1,4-dioxa-8-aza-spiro [4.5]decane hydrochloride] | –
